{
  "source": "paper PMC6240093",
  "about": "“Identification of Two Mannosyltransferases Contributing to Biosynthesis of the Fungal-type Galactomannan α-Core-Mannan Structure in Aspergillus fumigatus” (Scientific Reports, 2018)",
  "molecular_target": "T1, CmsA (Aspergillus fumigatus, UniProt B0Y2F5)",
  "T1 construct": "gene AFUB_051270; catalytic domain residues 27-397 (N-terminal TM removed)",
  "T1 sequence (B0Y2F5 entry or part of it)": "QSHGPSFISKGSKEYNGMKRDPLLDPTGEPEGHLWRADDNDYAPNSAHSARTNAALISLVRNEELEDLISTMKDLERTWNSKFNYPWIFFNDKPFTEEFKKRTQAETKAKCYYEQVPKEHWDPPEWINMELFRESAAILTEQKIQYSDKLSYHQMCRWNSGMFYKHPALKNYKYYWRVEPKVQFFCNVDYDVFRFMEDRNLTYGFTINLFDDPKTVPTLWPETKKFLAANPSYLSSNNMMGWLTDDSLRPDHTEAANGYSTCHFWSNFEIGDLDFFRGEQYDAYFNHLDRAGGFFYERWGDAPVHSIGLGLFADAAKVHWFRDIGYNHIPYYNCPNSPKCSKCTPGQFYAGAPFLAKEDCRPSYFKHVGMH",
  "assay": "HPLC (UV300) of product with p-nitrophenyl alpha-D-mannopyranoside as acceptor",
  "type": "biochemical",
  "settings": "donor 1.5 mM; p-nitrophenyl alpha-D-mannopyranoside 1.5 mM; 1.5 mM MnCl2; pH 7.0; 37 °C",
  "data": [
    {"smiles": "Nc1nc2c(ncn2[C@@H]2O[C@H](COP(=O)(O)OP(=O)(O)O[C@H]3O[C@H](CO)[C@@H](O)[C@H](O)[C@@H]3O)[C@@H](O)[C@H]2O)c(=O)[nH]1", "note": "[GDP-Man]", "values": [
      {"measurement": "HPLC (UV300) of product with p-nitrophenyl alpha-D-mannopyranoside as acceptor", "value": "CmsA has GDP-Man: α-mannoside α-1,2-mannosyltransferase activity in vitro"}
    ]}
  ]
}
